Key:
[1] = target: N-methyl-D-aspartate receptor (NMDAR) NR1/NR2B (Homo sapiens, UniProt Q05586+Q13224); assay: two-electrode voltage clamp in oocytes, inhibition concentration-response; format: cell-based
[2] = target: γ-aminobutyric acid type A receptor (GABAAR) α1β2γ2s (Homo sapiens, UniProt P14867+P47870); assay: whole-cell patch clamp, shift of GABA EC50; format: cell-based
Sequence of γ-aminobutyric acid type A receptor (GABAAR) α1β2γ2s (P14867 28-456): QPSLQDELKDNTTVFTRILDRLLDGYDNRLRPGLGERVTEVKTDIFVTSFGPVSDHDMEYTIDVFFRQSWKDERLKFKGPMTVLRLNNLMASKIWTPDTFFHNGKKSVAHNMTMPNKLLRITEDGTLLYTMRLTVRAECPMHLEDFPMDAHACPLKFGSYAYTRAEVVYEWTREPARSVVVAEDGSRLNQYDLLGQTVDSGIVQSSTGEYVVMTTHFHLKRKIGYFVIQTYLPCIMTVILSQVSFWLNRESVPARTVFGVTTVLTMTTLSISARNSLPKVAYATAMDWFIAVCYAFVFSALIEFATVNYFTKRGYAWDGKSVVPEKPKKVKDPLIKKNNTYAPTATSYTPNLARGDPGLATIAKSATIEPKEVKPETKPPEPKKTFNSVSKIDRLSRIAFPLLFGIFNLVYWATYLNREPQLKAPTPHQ
Sequence of γ-aminobutyric acid type A receptor (GABAAR) α1β2γ2s (P47870 26-512): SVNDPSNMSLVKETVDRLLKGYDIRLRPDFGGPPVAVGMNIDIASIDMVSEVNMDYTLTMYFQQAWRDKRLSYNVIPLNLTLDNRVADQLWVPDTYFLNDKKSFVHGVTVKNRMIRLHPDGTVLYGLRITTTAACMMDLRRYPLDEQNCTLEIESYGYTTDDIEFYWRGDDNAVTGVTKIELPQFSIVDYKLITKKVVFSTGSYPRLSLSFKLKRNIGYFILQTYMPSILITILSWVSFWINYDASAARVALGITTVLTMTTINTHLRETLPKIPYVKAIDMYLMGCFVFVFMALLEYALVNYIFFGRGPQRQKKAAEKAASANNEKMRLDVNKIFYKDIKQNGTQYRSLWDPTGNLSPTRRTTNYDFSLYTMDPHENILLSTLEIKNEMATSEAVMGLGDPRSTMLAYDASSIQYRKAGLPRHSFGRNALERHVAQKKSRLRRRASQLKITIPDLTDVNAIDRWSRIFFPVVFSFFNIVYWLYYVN
Sequence of γ-aminobutyric acid type A receptor (GABAAR) α1β2γ2s (P18507 40-475 partner): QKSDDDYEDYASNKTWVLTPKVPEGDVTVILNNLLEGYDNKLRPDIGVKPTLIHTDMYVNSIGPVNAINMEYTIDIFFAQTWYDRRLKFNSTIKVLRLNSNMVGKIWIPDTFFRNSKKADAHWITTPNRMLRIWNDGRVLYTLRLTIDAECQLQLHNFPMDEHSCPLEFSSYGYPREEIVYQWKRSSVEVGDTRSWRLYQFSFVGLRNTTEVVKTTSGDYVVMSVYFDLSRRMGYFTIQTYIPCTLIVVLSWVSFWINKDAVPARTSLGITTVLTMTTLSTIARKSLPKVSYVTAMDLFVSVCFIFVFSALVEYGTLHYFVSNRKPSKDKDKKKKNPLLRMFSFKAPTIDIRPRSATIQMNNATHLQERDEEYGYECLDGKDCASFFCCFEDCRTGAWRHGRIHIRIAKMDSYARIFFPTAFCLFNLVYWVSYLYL

Sequence of N-methyl-D-aspartate receptor (NMDAR) NR1/NR2B (Q13224 27-1484, other chains not shown): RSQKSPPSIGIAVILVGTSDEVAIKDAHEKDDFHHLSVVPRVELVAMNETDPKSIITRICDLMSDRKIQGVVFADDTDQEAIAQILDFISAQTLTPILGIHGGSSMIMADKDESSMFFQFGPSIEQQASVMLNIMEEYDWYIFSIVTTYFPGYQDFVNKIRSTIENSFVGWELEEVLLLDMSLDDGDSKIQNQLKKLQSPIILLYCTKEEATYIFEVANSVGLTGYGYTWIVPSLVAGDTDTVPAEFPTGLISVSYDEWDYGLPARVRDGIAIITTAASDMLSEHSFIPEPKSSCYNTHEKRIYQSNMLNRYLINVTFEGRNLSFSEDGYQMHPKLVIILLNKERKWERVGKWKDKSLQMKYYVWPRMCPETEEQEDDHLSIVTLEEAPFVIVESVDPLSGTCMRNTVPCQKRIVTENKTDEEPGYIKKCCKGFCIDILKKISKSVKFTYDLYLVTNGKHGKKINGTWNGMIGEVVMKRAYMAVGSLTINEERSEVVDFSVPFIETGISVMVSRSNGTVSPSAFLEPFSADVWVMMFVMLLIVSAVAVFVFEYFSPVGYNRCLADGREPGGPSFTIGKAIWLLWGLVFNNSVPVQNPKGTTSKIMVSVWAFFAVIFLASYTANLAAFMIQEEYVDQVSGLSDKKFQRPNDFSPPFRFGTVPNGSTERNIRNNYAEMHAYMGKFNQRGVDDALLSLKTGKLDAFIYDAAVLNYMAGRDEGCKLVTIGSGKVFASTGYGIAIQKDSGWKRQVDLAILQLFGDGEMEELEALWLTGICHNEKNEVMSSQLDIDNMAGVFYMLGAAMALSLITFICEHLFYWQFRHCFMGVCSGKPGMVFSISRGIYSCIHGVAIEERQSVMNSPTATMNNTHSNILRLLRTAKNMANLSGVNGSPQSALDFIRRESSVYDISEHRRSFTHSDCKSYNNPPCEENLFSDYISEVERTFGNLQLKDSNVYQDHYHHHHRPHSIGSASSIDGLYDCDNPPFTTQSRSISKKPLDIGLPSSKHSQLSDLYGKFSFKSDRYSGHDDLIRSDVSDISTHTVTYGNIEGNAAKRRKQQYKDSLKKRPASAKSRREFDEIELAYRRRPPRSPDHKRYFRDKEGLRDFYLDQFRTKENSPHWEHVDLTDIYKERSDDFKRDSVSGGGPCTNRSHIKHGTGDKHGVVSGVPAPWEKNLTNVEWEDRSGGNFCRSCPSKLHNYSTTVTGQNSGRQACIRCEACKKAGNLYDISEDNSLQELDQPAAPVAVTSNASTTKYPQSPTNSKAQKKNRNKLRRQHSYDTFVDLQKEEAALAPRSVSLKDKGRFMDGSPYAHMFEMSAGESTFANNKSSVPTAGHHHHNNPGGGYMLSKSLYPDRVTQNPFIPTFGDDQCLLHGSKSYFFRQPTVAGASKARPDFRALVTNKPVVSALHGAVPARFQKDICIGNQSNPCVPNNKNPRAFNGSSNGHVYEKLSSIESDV

| SMILES | IC50 [1] | whole-cell patch clamp, shift of GABA EC50 [2] |
| --- | --- | --- |
| c1ccccc1 [benzene] | 340 ± 40 µM | – |
| ClC(Cl)Cl [chloroform] | – | Both halothane and chloroform decreased the GABA EC50 in a dose dependent and saturable manner |
| FC(F)OC(Cl)C(F)(F)F (stereo not drawn) [ISO, isoflurane] | 2400 µM | – |

Reference: publication PMC2493416 (Anesthesia and analgesia, 2008)
